Read-outs that look alike come from different tables or passages of the source.
Assays:
NHBANm = NHBANm (Neisseria meningitidis serogroup B, UniProt Q7DD37); conditions: cited from earlier work
NHBANg = NHBANg (Neisseria gonorrhoeae, UniProt B4RQT3); assay: SPR analysis of glycan binding; conditions: for SPR binding, in words: glycans 100 μM to 1 nM
Method: Surface plasmon resonance (SPR) was performed using a BIAcore T200 instrument with recombinant NHBANg (100 μg/ml) immobilized on flow cells 2-4 by amine coupling on series S CMS sensor chips (GE Healthcare) as described previously. Flow cell 1 was used as the reference cell and immobilized with ethanolamine only. Single cycle kinetics was used to calculate the affinity (KD) of interactions with glycans run in 1:5 dilution series at concentrations between 100 μM to 1 nM. Results were analysed using BIAcore T200 software 2.0.2.

[1] = tested on: N. gonorrhoeae 1291 ΔNHBA; assay: Normal human serum survival assay; type: cell-based, Neisseria gonorrhoeae; conditions: ΔNHBA mutant; 10% normal human serum, 60 minutes; 6 μM heparin pre-incubation
Method: Resistance of N. gonorrhoeae to serum-mediated killing was tested as described previously with ˜10^4 CFU incubated in 10% (v/v) for 60 minutes at 37° C. and subsequently plated on GC agar. Bacteria were pre-incubated with 6 μM heparin 30 minutes where indicated. Bacterial survival was calculated as percent CFU (average from three replicate wells) relative to no treatment control.

[2] = tested on: N. gonorrhoeae adherence to urethral (tUEC) epithelial cells; assay: Blocking of gonococcal adherence by sera, urethral epithelial cells; type: cell-based, Neisseria gonorrhoeae
Method: (§1) Gonococcal adherence assays were performed as described previously with following modifications. Briefly, tCX and tUEC cell monolayers were infected (10 min at 37° C.) with approximately 1×10^5 CFU that was initially pre-incubated with serial dilutions of heat-inactivated mouse sera for 30 min at room temperature. Following the infection, cell monolayers were washed three times with warm HBSS to remove non-adherent bacteria and well contents plated onto GC agar. Results were calculated as the mean CFU from three replicate wells and presented as percentage of adherent bacteria relative to no antibody control. Statistical analysis performed with ANOVA and two-tailed Student's t-test. Each experiment was performed three times.

[3] = tested on: N. gonorrhoeae adherence to cervical (tCX) epithelial cells; assay: Blocking of gonococcal adherence by sera, cervical epithelial cells; type: cell-based, Neisseria gonorrhoeae
Method: as §1

[4] = tested on: NHBA-heparin interactions; assay: SPR competition assay, blocking of NHBA-heparin interactions by sera; type: binding, Neisseria gonorrhoeae; conditions: 1:200 dilution of serum; heparin max 50 μM
Method: SPR competition assays were performed using a Pall Pioneer FE. Competition assays were performed as previously described using NextStep injections in the OneStep assay builder. Pre- and post-immune NHBA mouse sera were used as the first injection (A), and heparin as the second injection (B). Binding of heparin (maximum OneStep concentration of 50 μM) to NHBA was compared with and without serum, and with 1:200 dilution of pre- or post-immune serum. Data was collected using the Pioneer Software package and analyzed using Qdat analysis software. The percentage blocking was calculated based on the relative RMax of the heparin injection without serum (Injection A=buffer; B=heparin) versus the serum subtracted (Injection A=pre/postimmune serum; B=buffer) binding of heparin in the presence of serum ((Injection A=pre/postimmune serum; B=heparin).

[5] = single cycle kinetics, immobilised NHBANg, read-out: KD

For `O=C[C@H](O)[C@@H](O)[C@H](O)[C@H](O)COP(=O)(O)O` [β-Glc6P, glucose 6-phosphate], the Kd (NHBANm) is given as 56 nM.

With `CC(=O)N[C@H]1C(O)O[C@H](CO)[C@@H](O[C@@H]2O[C@H](CO)[C@H](O)[C@H](O)[C@H]2O)[C@@H]1O[C@@H]1O[C@@H](C)[C@@H](O)[C@@H](O)[C@@H]1O` (stereo partly drawn) [Lewis X] the “fold greater affinity than for sialyl Lewis X” value (NHBANg; ratio of KD) was 5 fold and the Kd (NHBANg; [5]) was 680 nM.

For `CC(=O)N[C@H]1[C@H](O[C@H]2[C@@H](O)[C@@H](CO)O[C@@H](O[C@H]3[C@H](O)[C@@H](O)C(O)O[C@@H]3CO)[C@@H]2O)O[C@H](CO)[C@@H](O[C@@H]2O[C@H](CO[C@]3(C(=O)O)C[C@H](O)[C@@H](NC(C)=O)[C@H]([C@H](O)[C@H](O)CO)O3)[C@H](O)[C@H](O)[C@H]2O)[C@@H]1O` (stereo partly drawn) [LSTc], the Kd (NHBANg) was 240 nM.

`CC(=O)N[C@H]1[C@H]([C@H](O)[C@H](O)CO)O[C@@](O[C@H]2[C@@H](O)[C@@H](CO)O[C@@H](O[C@H]3[C@H](O[C@@H]4O[C@@H](C)[C@@H](O)[C@@H](O)[C@@H]4O)[C@@H](NC(C)=O)C(O)O[C@@H]3CO)[C@@H]2O)(C(=O)O)C[C@@H]1O` (stereo partly drawn) [sialyl Lewis X] showed a Kd (NHBANg; single cycle kinetics, immobilised NHBANg) of 3650 nM.

Work on `CC(=O)N[C@H]1[C@H](O[C@H]2[C@@H](O)[C@@H](CO)O[C@@H](O[C@H]3[C@H](O)[C@@H](O)C(O)O[C@@H]3CO)[C@@H]2O)O[C@H](CO[C@]2(C(=O)O)C[C@H](O)[C@@H](NC(C)=O)[C@H]([C@H](O)[C@H](O)CO)O2)[C@@H](O)[C@@H]1O[C@@H]1O[C@H](CO)[C@H](O)[C@H](O)[C@H]1O` (stereo partly drawn) [LSTb] yielded a Kd (NHBANg) of 2260 nM.

`CC(=O)N[C@H]1[C@H](O[C@H]2[C@@H](O)[C@@H](CO)O[C@@H](O[C@H]3[C@H](O)[C@@H](O)C(O)O[C@@H]3CO)[C@@H]2O)O[C@H](CO)[C@@H](O[C@@H]2O[C@H](CO)[C@H](O)[C@H](O)[C@H]2O)[C@@H]1O` (stereo partly drawn) [LNnT, lacto N-neotetraose] showed a Kd (NHBANg) of 4890 nM.

With “dermatan sulfate [chondroitin sulfate B]” the “SPR binding, in words” value (NHBANg) was “no concentration dependent binding”.

In the case of heparin, the Kd (NHBANg; [5]) is reported as 4.4 nM and the “survival in human serum after pre-treatment, in words” value [1] is reported as “increased survival”.

chondroitin sulfate showed a Kd (NHBANg; [5]) of 73 nM.

Work on heparan sulfate yielded a Kd (NHBANg; [5]) of 2790 nM.

For hyaluronan, the “SPR binding, in words” value (NHBANg) was “No concentration dependent binding”.

In the case of `C[C@@H]1O[C@@H](O[C@@H]2[C@@H](O)[C@@H](O)[C@@H](CO)O[C@H]2O)[C@@H](O)[C@H](O)[C@@H]1O` [H-disaccharide], the “SPR binding, in words” value (NHBANg) is reported as “No concentration dependent binding”.

In the case of “chondroitin 4-sulfate [chondroitin sulfate A]”, the “SPR binding, in words” value (NHBANg) is reported as “no concentration dependent binding”.

In the case of “chondroitin 6-sulfate [chondroitin sulfate C]”, the “SPR binding, in words” value (NHBANg) is reported as “bound”.

B1: NHBA-c: C-terminal fragment of NHBA of N. gonorrhoeae 1291 (SEQ ID NO:2, 183 amino acids); antisera to it, adjuvant not stated at place (protein)
chain: SLPAEIPLIPVNQADTLIVDGEAVSLTGHSGNIFAPEGNYRYLTYGAEKLPGGSYALRVQGEPAKGEMLAGTAVYNGEVLHFHMENGRPYPSGGRFAAKVDFGSKSVDGIIDSSDDLHMGTQKFKAAIDGNGFKGTWTENGGGDVSGRFYGPAGEEVAGKYSYRPTDAEKGGFGVFAGKKDRD
modifications: Neisseria gonorrhoeae (strain 1291)
For B1, the “decrease of gonococcal adherence” value ([2]; tUEC cells, 1:20 dilution of sera, relative to no antibody control) was 5 fold, the “adherence of serum-treated gonococci, in words” value ([2]; urethral epithelial cells, all tested concentrations, relative to untreated control) was “significantly reduced adherence” and the “adherence of serum-treated gonococci, in words” value ([3]; cervical epithelial cells, all tested concentrations, relative to untreated control) was “significantly reduced adherence”. For the same molecule, the “decrease of gonococcal adherence” value ([3]; tCX cells, 1:20 dilution of sera, relative to no antibody control) was 8 fold and the “reduction of heparin binding to NHBA” value [4] was 11%.

Reference: patent US12479892B2, “Immunogenic protein against gonococcal infection” (priority 2019, dated 2025)
